{"source": "BindingDB's records for doi:10.1021/acsmedchemlett.7b00169", "about": "(2017)", "test_system": "Enterococcus faecalis", "assay": "Antimicrobial activity against vancomycin-resistant Enterococcus faecalis NCTC12201 after 8 hrs"}
{"smiles": "Nc1c(O)cccc1C(=O)C[C@H](N)C(=O)O", "values": [{"measurement": "IC50", "result": 30, "unit": "µM"}]}
